For assay [1], the system named is Escherichia coli. The experiment in a line: microbe, parasite or virus in culture. It counts as functional. Conditions: R477/100.
Description: Antibacterial activity against Escherichia coli R477/100 by double microdilution assay
Assay [2] can be described thus: Binding affinity to decoding site rRNA of ribosome in Escherichia coli using Escherichia coli S30 circular DNA assessed as inhibition of translation incubated for 60 mins by luciferase reporter gene based coupled transcription/translation assay.
A short description of assay [3]: Binding affinity to decoding site rRNA of ribosome in TNT rabbit reticulocyte lysate using luciferase T7 control DNA plasmid assessed as inhibition of translation incubated for 60 mins by luciferase reporter gene based coupled transcription/translation assay. Details: species or system Oryctolagus cuniculus.
In assay [4] the test system is Bacillus spizizenii. The experiment in a line: microbe, parasite or virus in culture. It counts as functional. Particulars: ATCC 6633.
Description: Antibacterial activity against Bacillus subtilis ATCC 6633 by double microdilution assay
A short description of assay [5]: Binding affinity to decoding site rRNA of ribosome in Escherichia coli using Escherichia coli S30 circular DNA assessed as inhibition of translation incubated for 20 mins by luciferase reporter gene based coupled transcription/translation assay.

Molecules are shown by their SMILES. pIC50: −log10 of the molar value. In brackets after ≈: the same amount, converted by molar mass. A value given as a limit tells only on which side of the number the result lay.

`C[C@H](N)[C@H]1O[C@@H](O[C@H]2[C@H](O)[C@@H](N)C[C@@H](N)[C@@H]2O[C@H]2O[C@H]([C@H](O)CO)[C@@H](O)[C@H](O)[C@H]2N)[C@H](O)[C@@H]1O`: the MIC in assay [1] is more than 257 µM; in assay [4] it was 64 µM (≈ 31.9 µg/mL). Besides, the pIC50 in assay [2] and in assay [3] was 5.92 in each case.

With `N[C@H]1[C@@H](O[C@@H]2[C@@H](O)[C@H](O)[C@@H](N)C[C@H]2N)O[C@H]([C@@H](O)CO)[C@@H](O)[C@@H]1O`, the MIC in assay [1] and in assay [4] was more than 375 µM throughout. Further, the pIC50 is 4.04 in assay [2] and 3.29 in assay [3].

As for `NC[C@H]1O[C@@H](O[C@H]2[C@H](O)[C@@H](N)C[C@@H](N)[C@@H]2O[C@H]2O[C@H]([C@H](O)CO)[C@@H](O)[C@H](O)[C@H]2N)[C@H](O)[C@@H]1O`, the MIC was more than 273 µM in assay [1] and 34 µM (≈ 16.5 µg/mL) in assay [4]. The pIC50 in assay [2] was 6.15; in assay [3] it was 5.12.

For the compound `C[C@H](N)[C@H]1O[C@@H](O[C@H]2[C@H](O)[C@@H](N)C[C@@H](N)[C@@H]2O[C@H]2O[C@H]([C@@H](C)O)[C@@H](O)[C@H](O)[C@H]2N)[C@H](O)[C@@H]1O`, the figures for the MIC in assay [1] and in assay [4] were 1270 µM (≈ 611 µg/mL) and 156 µM (≈ 75.3 µg/mL), respectively. For the same compound, the pIC50 in assay [2] is 5.96; in assay [3], 5.82.

Consider `CN[C@@H]1[C@@H](O)[C@@H](O[C@@H]2[C@@H](O)[C@H](O[C@H]3O[C@H](CN)CC[C@H]3N)[C@@H](N)C[C@H]2N)OC[C@]1(C)O`, for which the negative-log IC50 (pIC50) in assay [3] was 4.21. In assay [4], this compound showed an MIC of less than 0.75 µM.

Regarding `N[C@H]1[C@@H](O[C@@H]2[C@@H](O)[C@H](O)[C@@H](N)C[C@H]2N)O[C@H]([C@H](O)CO)[C@@H](O)[C@@H]1O`, the MIC in assay [1] was more than 311 µM; in assay [4], 311 µM (≈ 110 µg/mL). Also, the values for the pIC50 in assay [2] and in assay [3] were 4.96 and 3.92, respectively.

Consider `N[C@H]1[C@@H](O[C@@H]2[C@@H](O)[C@H](O)[C@@H](N)C[C@H]2N)O[C@H](C(O)CO)[C@@H](O)[C@@H]1O` (mixture of isomers), for which, in assay [5], the pIC50 was 4.62.

For the compound `N[C@H]1[C@@H](O[C@H]2[C@H](O)[C@@H](O)[C@H](N)C[C@@H]2N)O[C@H](CO)[C@@H](O)[C@@H]1O` [PAROMAMINE], the pIC50 in assay [5] was 5.41.

In the case of `CN[C@@H]1[C@@H](O)[C@@H](O[C@H]2[C@H](O)[C@@H](O[C@H]3O[C@H](C(C)O)[C@@H](O)[C@H](O)[C@H]3N)[C@H](N)C[C@@H]2N)OC[C@]1(C)O` (some centres undefined), the results for the MIC in assay [1] and in assay [4] were 9 µM (≈ 4.47 µg/mL) and less than 1.25 µM, respectively. Also, the pIC50 in assay [2] is 8.00.

Consider `C[C@@H](O)[C@H]1O[C@H](O[C@@H]2[C@@H](O)[C@H](O)[C@@H](N)C[C@H]2N)[C@H](N)[C@@H](O)[C@@H]1O`, for which the negative-log IC50 (pIC50) in assay [2] was 5.22; in assay [3] it was 3.46.

The record behind these values is ChEMBL document CHEMBL3808375, “Design of Novel Aminoglycoside Derivatives with Enhanced Suppression of Diseases-Causing Nonsense Mutations” (ACS Med Chem Lett, 2016).
